In PMC12337342 (Proceedings of the National Academy of Sciences of the …, 2025):

The compounds below were run against T1, AUX1 (Arabidopsis thaliana, UniProt Q96247) (assay: inhibition of [3H]IAA uptake in AUX1-expressing HEK293T cells). Conditions: about 30 nM [3H]IAA, pH 6.0, 37 °C, 10 min.
T1 sequence (Q96247 1-485): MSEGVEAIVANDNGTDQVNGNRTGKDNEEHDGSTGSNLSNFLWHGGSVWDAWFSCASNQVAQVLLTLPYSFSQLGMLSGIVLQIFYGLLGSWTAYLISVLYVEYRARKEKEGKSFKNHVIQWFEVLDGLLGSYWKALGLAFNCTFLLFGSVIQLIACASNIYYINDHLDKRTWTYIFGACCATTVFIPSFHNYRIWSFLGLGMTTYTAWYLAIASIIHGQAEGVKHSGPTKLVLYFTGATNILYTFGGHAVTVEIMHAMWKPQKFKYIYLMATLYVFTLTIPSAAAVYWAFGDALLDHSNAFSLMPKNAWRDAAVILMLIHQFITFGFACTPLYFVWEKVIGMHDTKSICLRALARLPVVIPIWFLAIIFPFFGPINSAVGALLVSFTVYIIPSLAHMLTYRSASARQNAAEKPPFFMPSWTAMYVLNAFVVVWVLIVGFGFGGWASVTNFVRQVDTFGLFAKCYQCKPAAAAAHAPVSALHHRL
Type: cell-based

SMILES | % relative auxin accumulation at 50 μM inhibitor
O=C(O)Cc1ccc(O)c(Cl)c1 [CHPAA, 3-chloro-4-hydroxyphenylacetic acid] | reduced the uptake of [^3H]IAA in AUX1-expressing HEK293T cells
O=C(O)COc1ccc2ccccc2c1 [2-NOA, 2-naphthoxyacetic acid] | reduced the uptake of [^3H]IAA in AUX1-expressing HEK293T cells
O=C(O)COc1cccc2ccccc12 [1-NOA, 1-naphthoxyacetic acid] | reduced the uptake of [^3H]IAA in AUX1-expressing HEK293T cells
